Columns and labels:
HIV = details: cited from earlier work
NF-KB = experiment: NF-KB/SV40/SEAP reporter assay in Jurkat T-cells; format: cell-based; details: NF-KB/SV40/SEAP/Neo Jurkat T-cells; 0.1, 1, 10 ng; positive control
Text: NF-KB (Nuclear Factor KB) is a transcription factor activated by a wide variety of agents including the inflammatory cytokines IL-1 and TNF, CD30 and CD40, lymphotoxin-alpha and lymphotoxin-beta, by exposure to LPS or thrombin, and by expression of certain viral gene products. As a transcription factor, NF-KB regulates the expression of genes involved in immune cell activation, control of apoptosis (NF-KB appears to shield cells from apoptosis), B and T-cell development, anti-viral and antimicrobial responses, and multiple stress responses.
Due to its central role and ability to respond to a range of stimuli, reporter constructs utilizing the NF-KB promoter element are used to screen the fusion protein. Activators or inhibitors of NF-KB would be useful in treating, preventing, and/or diagnosing diseases. For example, inhibitors of NF-KB could be used to treat those diseases related to the acute or chronic activation of NF-KB, such as rheumatoid arthritis.
To construct a vector containing the NF-KB promoter element, a PCR based strategy is employed. The upstream primer contains four tandem copies of the NF-KB binding site ([…]) (SEQ ID NO: 48), 18 bp of sequence complementary to the 5′ end of the SV40 early promoter sequence, and is flanked with an XhoI site: […]

CC[C@H]1C(=O)Nc2ccc(F)cc2N1C(=O)OC(C)C [GW-420867×]
activity relative to HBY097 (HIV): 25 fold

Nc1nc(=O)n([C@@H]2CS[C@H](CO)O2)cc1F [emtricitabine]
activity in vitro relative to lamivudine (3TC) (HIV; in vitro): 3- to 10 fold

C[C@H](Sc1nc(N)cc(Cl)n1)c1cc2ccoc2cn1 [PNU-142721]
activity relative to its predecessor delavirdine (HIV): 20- to 50 fold

TNF alpha
activation (SEAP reporter activity) (NF-KB): 5-10 fold

— patent US20030143191A1, “Chemokine beta-1 fusion proteins” (priority 2001, published 2003)
